Each block holds one compound with its values, some of them ahead of it.
Biological target: T1, ERα (Homo sapiens, UniProt P03372)
T1 construct: host or cells: MCF7
T1 sequence (P03372 1-595): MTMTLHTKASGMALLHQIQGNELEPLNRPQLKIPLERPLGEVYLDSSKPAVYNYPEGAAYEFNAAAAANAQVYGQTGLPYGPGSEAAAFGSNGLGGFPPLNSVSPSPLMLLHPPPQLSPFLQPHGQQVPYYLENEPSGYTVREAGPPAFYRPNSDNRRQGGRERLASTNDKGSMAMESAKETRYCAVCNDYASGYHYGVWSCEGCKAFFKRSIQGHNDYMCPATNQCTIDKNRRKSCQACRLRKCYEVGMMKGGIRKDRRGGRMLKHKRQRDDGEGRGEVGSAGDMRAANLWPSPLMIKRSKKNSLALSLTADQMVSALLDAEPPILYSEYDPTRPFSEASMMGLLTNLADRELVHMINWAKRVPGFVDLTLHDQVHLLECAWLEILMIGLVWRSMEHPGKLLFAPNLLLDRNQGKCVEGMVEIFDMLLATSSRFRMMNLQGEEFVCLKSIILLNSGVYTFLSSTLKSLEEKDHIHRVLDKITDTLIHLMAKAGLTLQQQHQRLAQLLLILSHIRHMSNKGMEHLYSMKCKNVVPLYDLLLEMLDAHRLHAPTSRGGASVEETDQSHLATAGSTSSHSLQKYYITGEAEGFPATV
Assay: Estrogen receptor degradation activity: breast cancer cell ERα in cell western assay (MCF7 cells)
Format: cell-based
Details: for % Degradation At 0.3 μM: 4 hours, relative to fulvestrant 0.1 μM positive control; for DC50: read-out: Degradation IC50
Summary of the method: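 Compounds were applied to MCF7 cells in stripped-serum, phenol red-free medium for 4 h at final 0.3–0.0000018 μM, with fulvestrant (0.1 μM) as control. Value: IC50 (nM) for 50% ERα degradation.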

[1] = 4 hours post compound addition, concentration which degrades 50% of the estrogen receptor

Structure (SMILES): COc1cc(F)ccc1C1=C(c2ccc(CC3CN(CCCF)C3)cc2)c2ccc(C(=O)O)cc2CCC1 [Example 36, 8-(4-fluoro-2-methoxyphenyl)-9-(4-((1-(3-fluoropropyl)azetidin-3-yl)methyl)phenyl)-6,7-dihydro-5H-benzo[7]annulene-3-carboxylic acid]
% Degradation At 0.3 μM: 89%
DC50 [1]: 0.6 nM

Structure (SMILES): Cc1ccc(C2=C(c3ccc(CC4CN(CCCF)C4)cc3)c3ccc(C(=O)O)cc3CCC2)c(C(F)(F)F)c1.Cl [Example 213, 9-(4-((1-(3-fluoropropyl)azetidin-3-yl)methyl)phenyl)-8-(4-methyl-2-(trifluoromethyl)phenyl)-6,7-dihydro-5H-benzo[7]annulene-3-carboxylic acid hydrochloride]
% Degradation At 0.3 μM: 94%
DC50 [1]: 0.2 nM

Structure (SMILES): Cl.O=C(O)c1ccc2c(c1)CCCC(c1ccc(F)c3c1CCC3)=C2c1ccc(CC2CN(CCCF)C2)cc1 [Example 55, 8-(7-fluoro-2,3-dihydro-1H-inden-4-yl)-9-(4-((1-(3-fluoropropyl)azetidin-3-yl)methyl)phenyl)-6,7-dihydro-5H-benzo[7]annulene-3-carboxylic acid hydrochloride]
% Degradation At 0.3 μM: 93%
DC50 [1]: 0.5 nM

Structure (SMILES): Cc1cc(C2=C(c3ccc(Cl)cc3Cl)CCCc3cc(C(=O)O)ccc32)ccc1CC1CN(CCCF)C1.Cl [Example 48, 8-(2,4-dichlorophenyl)-9-(4-((1-(3-fluoropropyl)azetidin-3-yl)methyl)-3-methylphenyl)-6,7-dihydro-5H-benzo[7]annulene-3-carboxylic acid]
% Degradation At 0.3 μM: 86%
DC50 [1]: 0.5 nM

Structure (SMILES): Cl.O=C(O)c1ccc2c(c1)CCCC(c1ccc(Cl)c(F)c1Cl)=C2c1ccc(CC2CN(CCCF)C2)cc1 [Example 211, 8-(2,4-dichloro-3-fluorophenyl)-9-(4-((1-(3-fluoropropyl)azetidin-3-yl)methyl)phenyl)-6,7-dihydro-5H-benzo[7]annulene-3-carboxylic acid hydrochloride]
% Degradation At 0.3 μM: 96%
IC50 [1]: 0.1 nM

Structure (SMILES): Cc1cc(OC(F)F)ccc1C1=C(c2ccc(CC3CN(CCCF)C3)cc2)c2ccc(C(=O)O)cc2CCC1 [Example 20, 8-(4-(difluoromethoxy)-2-methylphenyl)-9-(4-((1-(3-fluoropropyl)azetidin-3-yl)methyl)phenyl)-6,7-dihydro-5H-benzo[7]annulene-3-carboxylic acid]
% Degradation At 0.3 μM: 91%
DC50 [1]: 0.3 nM

Structure (SMILES): Cl.O=C(O)c1ccc2c(c1)CCCC(C1CCC(F)(F)CC1)=C2c1ccc(CC2CN(CCCF)C2)cc1 [Example 4, 8-(4,4-Difluorocyclohexyl)-9-(4-((1-(3-fluoropropyl)azetidin-3-yl)methyl)phenyl)-6,7-dihydro-5H-benzo[7]Annulene-3-carboxylic Acid Hydrochloride]
% Degradation At 0.3 μM: 85%
DC50 [1]: 0.9 nM

Structure (SMILES): Cl.O=C(O)c1ccc2c(c1)CCCC(c1ccccc1)=C2c1ccc(CC2CN(CCCF)C2)cc1 [Example 1, 9-(4-((1-(3-Fluoropropyl)azetidin-3-yl)methyl)phenyl)-8-phenyl-6,7-dihydro-5H-benzo[7]annulene-3-carboxylic Acid Hydrochloride]
% Degradation At 0.3 μM: 83%
DC50 [1]: 0.4 nM

Structure (SMILES): O=C(O)c1ccc2c(c1)CCCC(C1CCOCC1)=C2c1ccc(CC2CN(CCCF)C2)cc1 [Example 38, 9-(4-((1-(3-fluoropropyl)azetidin-3-yl)methyl)phenyl)-8-(tetrahydro-2H-pyran-4-yl)-6,7-dihydro-5H-benzo[7]annulene-3-carboxylic acid]
% Degradation At 0.3 μM: 83%
DC50 [1]: 7 nM

Structure (SMILES): O=C(O)c1ccc2c(c1)CCCC(c1ccc(Cl)cc1Cl)=C2c1ccc(C(F)(F)C2CN(CCCF)C2)cc1 [Example 40, 8-(2,4-dichlorophenyl)-9-(4-(difluoro(1-(3-fluoropropyl)azetidin-3-yl)methyl)phenyl)-6,7-dihydro-5H-benzo[7]annulene-3-carboxylic acid]
% Degradation At 0.3 μM: 91%
DC50 [1]: 0.4 nM

Continued, values first:

% Degradation At 0.3 μM: 84%
DC50 [1]: 0.8 nM
Structure (SMILES): O=C(O)c1ccc2c(c1)CCCC(c1ccc(F)c(CC(F)(F)F)c1)=C2c1ccc(CC2CN(CCCF)C2)cc1 [Example 290, 8-(4-fluoro-3-(2,2,2-trifluoroethyl)phenyl)-9-(4-((1-(3-fluoropropyl)azetidin-3-yl)methyl)phenyl)-6,7-dihydro-5H-benzo[7]annulene-3-carboxylic acid]

% Degradation At 0.3 μM: 86%
DC50 [1]: 2.8 nM
Structure (SMILES): O=C(O)c1ccc2c(c1)CCCC(c1cnccc1C(F)(F)F)=C2c1ccc(CC2CN(CCCF)C2)cc1 [Example 214, 9-(4-((1-(3-fluoropropyl)azetidin-3-yl)methyl)phenyl)-8-(4-(trifluoromethyl)pyridin-3-yl)-6,7-dihydro-5H-benzo[7]annulene-3-carboxylic acid]

% Degradation At 0.3 μM: 84%
DC50 [1]: 6.5 nM
Structure (SMILES): COc1cc(C2=C(c3ccc(CC4CN(CCCF)C4)cc3)c3ccc(C(=O)[O-])cc3CCC2)cc(C(F)(F)F)n1.[Na+] [Example 274, sodium 9-(4-((1-(3-fluoropropyl)azetidin-3-yl)methyl)phenyl)-8-(2-methoxy-6-(trifluoromethyl)pyridin-4-yl)-6,7-dihydro-5H-benzo[7]annulene-3-carboxylate]

% Degradation At 0.3 μM: 85%
DC50 [1]: 0.4 nM
Structure (SMILES): Cl.O=C(O)c1ccc2c(c1)CCCC(c1cc(F)ccc1C(F)(F)F)=C2c1ccc(CC2CN(CCCF)C2)cc1 [Example 332, 8-(5-fluoro-2-(trifluoromethyl)phenyl)-9-(4-((1-(3-fluoropropyl)azetidin-3-yl)methyl)phenyl)-6,7-dihydro-5H-benzo[7]annulene-3-carboxylic acid hydrochloride]

% Degradation At 0.3 μM: 87%
DC50 [1]: 0.8 nM
Structure (SMILES): O=C(O)c1ccc2c(c1)CCCC(c1ccc(F)cc1C(F)(F)F)=C2c1ccc(CC2CN(CCC(F)(F)F)C2)cc1 [Example 258, 8-(4-fluoro-2-(trifluoromethyl)phenyl)-9-(4-((1-(3,3,3-trifluoropropyl)azetidin-3-yl)methyl)phenyl)-6,7-dihydro-5H-benzo[7]annulene-3-carboxylic acid]

% Degradation At 0.3 μM: 86%
DC50 [1]: 13.6 nM
Structure (SMILES): NC(c1ccc(C2=C(c3ccc(Cl)cc3Cl)CCCc3cc(C(=O)O)ccc32)cc1)C1CN(CCCF)C1 (single isomer, unassigned; isomer 2) [Example 244, 9-(4-(Amino(1-(3-fluoropropyl)azetidin-3-yl)methyl)phenyl)-8-(2,4-dichlorophenyl)-6,7-dihydro-5H-benzo[7]annulene-3-carboxylic Acid Isomer 2]

% Degradation At 0.3 μM: 81%
DC50 [1]: 1.2 nM
Structure (SMILES): O=C(O)c1ccc2c(c1)CCCC(c1ccccc1C(F)(F)F)=C2c1ccc(CC2(F)CN(CCCF)C2)cc1 [Example 238, 9-(4-((3-fluoro-1-(3-fluoropropyl)azetidin-3-yl)methyl)phenyl)-8-(2-(trifluoromethyl)phenyl)-6,7-dihydro-5H-benzo[7]annulene-3-carboxylic acid]

% Degradation At 0.3 μM: 76%
DC50 [1]: 0.6 nM
Structure (SMILES): COC(c1ccc(C2=C(c3ccc(Cl)cc3Cl)CCCc3cc(C(=O)O)ccc32)cc1)C1CN(CCCF)C1 (single isomer, unassigned; isomer 2) [Example 228, 8-(2,4-dichlorophenyl)-9-(4-((1-(3-fluoropropyl)azetidin-3-yl)(methoxy)methyl)phenyl)-6,7-dihydro-5H-benzo[7]annulene-3-carboxylic Acid Isomer 2]

% Degradation At 0.3 μM: 88%
DC50 [1]: 0.4 nM
Structure (SMILES): CC1CCc2cc(C(=O)O)ccc2C(c2ccc(CC3CN(CCCF)C3)cc2)=C1c1ccc(Cl)cc1 (single isomer, unassigned) [Example 328, 18-(4-chlorophenyl)-9-(4-((1-(3-fluoropropyl)azetidin-3-yl)methyl)phenyl)-7-methyl-6,7-dihydro-5H-benzo[7]annulene-3-carboxylic acid]

% Degradation At 0.3 μM: 90%
DC50 [1]: 0.6 nM
Structure (SMILES): Cc1c(C(=O)O)ccc2c1CCCC(c1ccc(Cl)cc1Cl)=C2c1ccc(CC2CN(CCCF)C2)cc1.Cl [Example 250, 8-(2,4-dichlorophenyl)-9-(4-((1-(3-fluoropropyl)azetidin-3-yl)methyl)phenyl)-4-methyl-6,7-dihydro-5H-benzo[7]annulene-3-carboxylic acid hydrochloride]

% Degradation At 0.3 μM: 93%
DC50 [1]: 0.6 nM
Structure (SMILES): COc1c(F)cccc1C1=C(c2ccc(CC3CN(CCCF)C3)cc2)c2ccc(C(=O)O)cc2CCC1 [Example 335, 8-(3-fluoro-2-methoxyphenyl)-9-(4-((1-(3-fluoropropyl)azetidin-3-yl)methyl)phenyl)-6,7-dihydro-5H-benzo[7]annulene-3-carboxylic acid]

% Degradation At 0.3 μM: 91%
DC50 [1]: 0.4 nM
Structure (SMILES): COc1c(Cl)cccc1C1=C(c2ccc(CC3CN(CCCF)C3)cc2)c2ccc(C(=O)O)cc2CCC1 [Example 334, 8-(3-chloro-2-methoxyphenyl)-9-(4-((1-(3-fluoropropyl)azetidin-3-yl)methyl)phenyl)-6,7-dihydro-5H-benzo[7]annulene-3-carboxylic acid]

Reference: patent US12595230B2, “Substituted 6,7-dihydro-5H-benzo[7]annulene compounds and their derivatives, processes for their preparation and therapeutic uses thereof” (Sanofi, priority 2020, dated 2026)
